Measured values from US20170190671A1, “BIS(ARYL)CATECHOL DERIVATIVES AS HERBICIDES” (E I DU PONT DE NEMOURS AND COMPANY, priority 2014, published 2017).

Experiments:
Assay in all cases: Test C preemergence
Type in all cases: in vivo
[1] = system: lambsquarters (Chenopodium album); conditions: Chenopodium album, pre-emergence, 336 h, scale 0 to 100, read-out: Plant response rating, Lambsquarters
Summary of the method: (§1)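 0-100 visual injury score (100 = complete control), assessed at 13-15 d after treatment against controls; surfactant-containing solvent formulation applied preemergence to seeded loam-sand soil or sprayed onto 1- to 4-leaf greenhouse plants.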

[2] = system: yellow nutsedge (Cyperus esculentus); conditions: Cyperus, pre-emergence, 336 h, scale 0 to 100, read-out: Plant response rating, Nutsedge, Yellow
Summary of the method: as §1

[3] = system: giant foxtail (Setaria faberii); conditions: Setaria faberi, pre-emergence, 336 h, scale 0 to 100, read-out: Plant response rating, Foxtail, Giant
Summary of the method: as §1

[4] = system: oilseed rape (Brassica napus); conditions: Brassica napus, pre-emergence, scale 0 to 100, read-out: Plant response rating, Oilseed Rape
Summary of the method: as §1

[5] = system: velvetleaf (Abutilon theophrasti); conditions: Abutilon theophrasti, pre-emergence, scale 0 to 100, read-out: Plant response rating, Velvetleaf
Summary of the method: as §1

[6] = system: barnyardgrass (Echinochloa crus-galli); conditions: Echinochloa crus-galli, pre-emergence, read-out: Plant response rating, Barnyardgrass
Summary of the method: as §1

[7] = system: Italian ryegrass (Lolium multiflorum); conditions: Lolium multiflorum, pre-emergence, 336 h, scale 0 to 100, read-out: Plant response rating, Ryegrass, Italian
Summary of the method: as §1

[8] = system: morningglory (Ipomoea coccinea); conditions: Ipomoea, pre-emergence, 336 h, scale 0 to 100, read-out: Plant response rating, Morningglory
Summary of the method: as §1

[9] = system: blackgrass (Alopecurus myosuroides); conditions: Alopecurus myosuroides, pre-emergence, 336 h, scale 0 to 100, read-out: Plant response rating, Blackgrass
Summary of the method: as §1

[10] = system: large (Lg) crabgrass (Digitaria sanguinalis); conditions: Digitaria sanguinalis, pre-emergence, 336 h, scale 0 to 100, read-out: Plant response rating, Crabgrass, Large
Summary of the method: as §1

[11] = system: pigweed (Amaranthus retroflexus); conditions: Amaranthus retroflexus, pre-emergence, 336 h, scale 0 to 100, read-out: Plant response rating, Pigweed
Summary of the method: as §1

corn (Zea mays) = conditions: Zea mays, pre-emergence, 336 h, scale 0 to 100
Summary of the method: as §1

[12] = system: waterhemp (common waterhemp, Amaranthus rudis); conditions: Amaranthus tuberculatus, pre-emergence, scale 0 to 100, read-out: Plant response rating, Waterhemp
Summary of the method: as §1

soybean (Glycine max) = conditions: Glycine max, pre-emergence, scale 0 to 100, read-out: Plant response rating, Soybean
Summary of the method: as §1

[13] = system: winter wheat (Triticum aestivum); conditions: Triticum aestivum, pre-emergence, 336 h, scale 0 to 100, read-out: Plant response rating, Wheat
Summary of the method: as §1

N#Cc1cccc(Oc2ncc(Cl)cn2)c1Oc1ccc(Br)cn1 [Compound 15]
80%: pest or weed control at 31 g/ha ([1]; 31 g ai/ha, preemergence) | pest or weed control at 31 g/ha ([3]; 31 g ai/ha, preemergence) | pest or weed control at 125 g/ha ([9]; 125 g ai/ha, preemergence) | pest or weed control at 16 g/ha ([11]; Preemergence, 16 g ai/ha)
100%: pest or weed control at 62 g/ha ([3]; 62 g ai/ha, preemergence) | pest or weed control at 125 g/ha ([3]; 125 g ai/ha, preemergence) | plant injury at 62 g/ha ([4]; 62 g ai/ha, preemergence) | plant injury at 125 g/ha ([4]; 125 g ai/ha, preemergence) | pest or weed control at 125 g/ha ([5]; 125 g ai/ha, preemergence) | pest or weed control at 31 g/ha ([10]; 31 g ai/ha, preemergence) | pest or weed control at 62 g/ha ([10]; 62 g ai/ha, preemergence) | pest or weed control at 125 g/ha ([10]; 125 g ai/ha, preemergence) | pest or weed control at 31 g/ha ([11]; 31 g ai/ha, preemergence) | pest or weed control at 62 g/ha ([11]; 62 g ai/ha, preemergence) | pest or weed control at 125 g/ha ([11]; 125 g ai/ha, preemergence) | pest or weed control at 31 g/ha ([12]; 31 g ai/ha, preemergence) | pest or weed control at 62 g/ha ([12]; 62 g ai/ha, preemergence) | pest or weed control at 125 g/ha ([12]; 125 g ai/ha, preemergence) | pest or weed control at 16 g/ha ([12]; Preemergence, 16 g ai/ha)
5%: pest or weed control at 31 g/ha ([7]; 31 g ai/ha, preemergence) | pest or weed control at 31 g/ha ([8]; 31 g ai/ha, preemergence) | pest or weed control at 16 g/ha ([8]; Preemergence, 16 g ai/ha) | Corn plant response rating (crop injury, 0 = no effect, 100 = complete kill) at 62 g/ha (corn (Zea mays); 62 g ai/ha, preemergence) | plant injury at 62 g/ha ([13]; 62 g ai/ha, preemergence)
10%: pest or weed control at 16 g/ha ([6]; Preemergence, 16 g ai/ha, scale 0 to 100 (0 no effect, 100 complete control)) | pest or weed control at 62 g/ha ([9]; 62 g ai/ha, preemergence)
95%: pest or weed control at 125 g/ha ([1]; 125 g ai/ha, preemergence)
20%: plant injury at 16 g/ha (soybean (Glycine max); Preemergence, 16 g ai/ha)
60%: pest or weed control at 16 g/ha ([5]; Preemergence, 16 g ai/ha) | pest or weed control at 125 g/ha ([7]; 125 g ai/ha, preemergence) | plant injury at 125 g/ha (soybean (Glycine max); 125 g ai/ha, preemergence)
30%: plant injury at 31 g/ha (soybean (Glycine max); 31 g ai/ha, preemergence)
25%: pest or weed control at 125 g/ha ([2]; 125 g ai/ha, preemergence) | plant injury at 16 g/ha ([4]; Preemergence, 16 g ai/ha) | pest or weed control at 31 g/ha ([6]; 31 g ai/ha, preemergence, scale 0 to 100)
75%: pest or weed control at 31 g/ha ([5]; 31 g ai/ha, preemergence) | pest or weed control at 16 g/ha ([10]; Preemergence, 16 g ai/ha)
98%: pest or weed control at 62 g/ha ([1]; 62 g ai/ha, preemergence) | plant injury at 31 g/ha ([4]; 31 g ai/ha, preemergence) | pest or weed control at 125 g/ha ([6]; 125 g ai/ha, preemergence, scale 0 to 100)
40%: pest or weed control at 62 g/ha ([7]; 62 g ai/ha, preemergence) | pest or weed control at 62 g/ha ([8]; 62 g ai/ha, preemergence) | Corn plant response rating (crop injury, 0 = no effect, 100 = complete kill) at 125 g/ha (corn (Zea mays); 125 g ai/ha, preemergence) | plant injury at 62 g/ha (soybean (Glycine max); 62 g ai/ha, preemergence) | plant injury at 125 g/ha ([13]; 125 g ai/ha, preemergence)
90%: pest or weed control at 62 g/ha ([5]; 62 g ai/ha, preemergence)
0%: pest or weed control at 31 g/ha ([2]; 31 g ai/ha, preemergence) | pest or weed control at 62 g/ha ([2]; 62 g ai/ha, preemergence) | pest or weed control at 16 g/ha ([2]; Preemergence, 16 g ai/ha) | pest or weed control at 16 g/ha ([7]; Preemergence, 16 g ai/ha) | pest or weed control at 31 g/ha ([9]; 31 g ai/ha, preemergence) | pest or weed control at 16 g/ha ([9]; Preemergence, 16 g ai/ha) | Corn plant response rating (crop injury, 0 = no effect, 100 = complete kill) at 31 g/ha (corn (Zea mays); 31 g ai/ha, preemergence) | Corn plant response rating (crop injury, 0 = no effect, 100 = complete kill) at 16 g/ha (corn (Zea mays); Preemergence, 16 g ai/ha) | plant injury at 31 g/ha ([13]; 31 g ai/ha, preemergence) | plant injury at 16 g/ha ([13]; Preemergence, 16 g ai/ha)
70%: pest or weed control at 16 g/ha ([1]; Preemergence, 16 g ai/ha) | pest or weed control at 16 g/ha ([3]; Preemergence, 16 g ai/ha) | pest or weed control at 62 g/ha ([6]; 62 g ai/ha, preemergence, scale 0 to 100) | pest or weed control at 125 g/ha ([8]; 125 g ai/ha, preemergence)
